# According to patent US20240398973A1, “ENGINEERED ANTIBODY COMPOUNDS AND CONJUGATES THEREOF” (Eli Lilly and Company, priority 2017, published 2024):
# Where two headings read alike, the source gives them in different places. Where no end group is shown, it is not given here.
# How the values were obtained:
# [1] = molecular target: formyl peptide receptor 1 (FPR1) on primary human polymorphonuclear neutrophils (human) (UniProt P21462); test: cell-based or functional assay
# [2] = molecular target: formyl peptide receptor 1 (FPR1) on primary human polymorphonuclear neutrophils (human) (UniProt P21462); test: cell-based or functional assay; remark: listed apart in the source
# human primary PMNs = test: PMN reactive oxygen species (ROS) production, luminol-amplified chemiluminescence; format: cell-based; conditions: for ROS Production by PMNs: relative to 10 uM fMLF, AUC 5 minutes (Table 8a); for PMN ROS production: relative to 1000 nM fMLF
# Procedure: Production of ROS by human primary PMNs is measured using luminol-amplified chemiluminescence. Following isolation, PMNs are suspended at 1×10^6 cells/ml in HBSS containing calcium and magnesium (Gibco #14025-092) supplemented with 0.25% human serum albumin (Gemini Bio producst #800-124) and 50 uM Luminol (SigmaAldrich #123072-2.5G). 100 μl of cell suspension (1×10^5 total cells) is then distributed into each well of a 96-well plate suitable for fluorescence measurement (Greiner #655098) and temperature equilibrated to 37° C. for 5 minutes. Following equilibration, 10× solution of antibody conjugate is applied to the wells, achieving a 1× final concentration.
# Immediately after the addition of antibody conjugate, chemiluminescence signal is recorded in a luminometer maintained at 37° C. with 0.01 seconds dwell time per well, 20 seconds total time between sequential plate readings and 45 minutes total run time (PerkinElmer EnVision Multilabel Plate Reader).
# [3] = test system: primary human polymorphonuclear neutrophil (PMN); test: PMN chemotaxis (transwell, modified Boyden chamber); format: cell-based; conditions: for Relative Migration (PMN migration): relative to 10 nM fMLF (Table 4a)
# Procedure: Chemotaxis is measured by observing primary human polymorphonuclear neutrophil (PMN) migration across transwell membranes (Corning #3415) towards antibody conjugates in a modified Boyden chamber assay. Approximately 2-4×10^5 cells from neutrophil-enriched preparations are seeded in upper transwell chambers on membranes with 3.0 um pores. The lower transwell chambers contain solutions of buffer alone and fMLF (N-formyl-Met-Leu-Phe peptide as positive control) and experimental antibody bioconjugates. […] Cell numbers are determined using standard curves. All data are transformed to percent relative to the maximal fMLF response for each individual experiment.
substance,measurement,setting,value
Emibetuzumab-G4(PAA)-fMLFK-HC-378C (antibody),PMN ROS production at 1 nM (percent relative to 1000 nM fMLF),[1],0.9%
same,PMN ROS production at 3 nM (percent relative to 1000 nM fMLF),[1],1.8%
same,PMN ROS production at 12 nM (percent relative to 1000 nM fMLF),[1],0.9%
same,PMN ROS production at 30 nM (percent relative to 1000 nM fMLF),[1],1.2%
same,PMN ROS production at 100 nM (percent relative to 1000 nM fMLF),[1],1%
same,PMN ROS production at 300 nM (percent relative to 1000 nM fMLF),[1],2.4%
same,PMN ROS production at 1000 nM (percent relative to 1000 nM fMLF),[1],2.8%
same,PMN ROS production at 1 nM (percent relative to 1000 nM fMLF),[2],25.8%
same,PMN ROS production at 2 nM (percent relative to 1000 nM fMLF),[2],27.7%
same,PMN ROS production at 3.9 nM (percent relative to 1000 nM fMLF),[2],28.2%
same,PMN ROS production at 7.8 nM (percent relative to 1000 nM fMLF),[2],27.3%
same,PMN ROS production at 15.6 nM (percent relative to 1000 nM fMLF),[2],29.6%
same,PMN ROS production at 31.3 nM (percent relative to 1000 nM fMLF),[2],24.5%
same,PMN ROS production at 62.5 nM (percent relative to 1000 nM fMLF),[2],23.4%
same,PMN ROS production at 125 nM (percent relative to 1000 nM fMLF),[2],23.5%
same,PMN ROS production at 250 nM (percent relative to 1000 nM fMLF),[2],23.9%
same,PMN ROS production at 500 nM (percent relative to 1000 nM fMLF),[2],38.3%
same,PMN ROS production at 1000 nM (percent relative to 1000 nM fMLF),[2],48.9%
H-Met-Leu-Phe-Lys (Mal-PEG12-OH (H-MLFK; not fully specified (residue 4)) [Peptide-'844],ROS Production by PMNs,human primary PMNs; 1 pM,7.4 percentage
same,ROS Production by PMNs,human primary PMNs; 10 pM,7.5 percentage
same,ROS Production by PMNs,human primary PMNs; 100 pM,7.5 percentage
same,ROS Production by PMNs,human primary PMNs; 1 nM,8.4 percentage
same,ROS Production by PMNs,human primary PMNs; 10 nM,7.8 percentage
same,ROS Production by PMNs,human primary PMNs; 100 nM,8.2 percentage
same,ROS Production by PMNs,human primary PMNs; 1 μM,8.7 percentage
same,ROS Production by PMNs,human primary PMNs; 10 μM,23.5 percentage
same,concentration at which PMN migration is maximally induced,[3],1 µM
same,Relative Migration (PMN migration),[3]; 1 pM,1.4%
same,Relative Migration (PMN migration),[3]; 10 pM,4.1%
same,Relative Migration (PMN migration),[3]; 100 pM,0.4%
same,Relative Migration (PMN migration),[3]; 1 nM,11.1%
same,Relative Migration (PMN migration),[3]; 10 nM,2.9%
same,Relative Migration (PMN migration),[3]; 100 nM,20.4%
same,Relative Migration (PMN migration),[3]; 1 uM,114.2%
same,Relative Migration (PMN migration),[3]; 10 uM,110.4%
same,fold less potent at inducing PMN migration than Peptide-'183,[3]; dose response differences,1000 fold
"Emibetuzumab-G4(PAA)-UC-HC-124C-378C: unconjugated emibetuzumab IgG4(PAA) with HC 124C and 378C; HC SEQ ID NO:3, LC SEQ ID NO:5",PMN ROS production,"human primary PMNs; 1 nM, AUC 5 minutes (Table 10)",25.1 percentage
same,PMN ROS production,"human primary PMNs; 1 nM, AUC 5 minutes (Table 17)",0.5 percentage
same,PMN ROS production,"human primary PMNs; 2 nM, AUC 5 minutes (Table 10)",25.5 percentage
same,PMN ROS production,"human primary PMNs; 3 nM, AUC 5 minutes (Table 17)",0.6 percentage
same,PMN ROS production,"human primary PMNs; 3.9 nM, AUC 5 minutes (Table 10)",25 percentage
same,PMN ROS production,"human primary PMNs; 7.8 nM, AUC 5 minutes (Table 10)",25.6 percentage
same,PMN ROS production,"human primary PMNs; 12 nM, AUC 5 minutes (Table 17)",0.5 percentage
same,PMN ROS production,"human primary PMNs; 15.6 nM, AUC 5 minutes (Table 10)",24.9 percentage
same,PMN ROS production,"human primary PMNs; 30 nM, AUC 5 minutes (Table 17)",0.6 percentage
same,PMN ROS production,"human primary PMNs; 31.3 nM, AUC 5 minutes (Table 10)",25.3 percentage
same,PMN ROS production,"human primary PMNs; 62.5 nM, AUC 5 minutes (Table 10)",24.5 percentage
same,PMN ROS production,"human primary PMNs; 100 nM, AUC 5 minutes (Table 17)",0.5 percentage
same,PMN ROS production,"human primary PMNs; 125 nM, AUC 5 minutes (Table 10)",24.6 percentage
same,PMN ROS production,"human primary PMNs; 250 nM, AUC 5 minutes (Table 10)",24.9 percentage
same,PMN ROS production,"human primary PMNs; 300 nM, AUC 5 minutes (Table 17)",0.7 percentage
same,PMN ROS production,"human primary PMNs; 500 nM, AUC 5 minutes (Table 10)",23 percentage
same,PMN ROS production,"human primary PMNs; 1000 nM, AUC 5 minutes (Table 10)",32.2 percentage
same,PMN ROS production,"human primary PMNs; 1000 nM, AUC 5 minutes (Table 17)",0.5 percentage
same,Relative Migration (PMN migration towards antibody conjugates),"[3]; 0.78 nM, relative to 3.12 nM fMLF (Table 6)",5.48%
same,Relative Migration (PMN migration towards antibody conjugates),"[3]; 1 nM, relative to 30 nM fMLF (Table 7)",11.30%
same,Relative Migration (PMN migration towards antibody conjugates),"[3]; 1.56 nM, relative to 3.12 nM fMLF (Table 6)",8.05%
same,Relative Migration (PMN migration towards antibody conjugates),"[3]; 3 nM, relative to 30 nM fMLF (Table 7)",12.40%
same,Relative Migration (PMN migration towards antibody conjugates),"[3]; 3.12 nM, relative to 3.12 nM fMLF (Table 6)",7.24%
same,Relative Migration (PMN migration towards antibody conjugates),"[3]; 6.25 nM, relative to 3.12 nM fMLF (Table 6)",6.36%
same,Relative Migration (PMN migration towards antibody conjugates),"[3]; 10 nM, relative to 30 nM fMLF (Table 7)",12.27%
same,Relative Migration (PMN migration towards antibody conjugates),"[3]; 12.5 nM, relative to 3.12 nM fMLF (Table 6)",4.11%
same,Relative Migration (PMN migration towards antibody conjugates),"[3]; 25 nM, relative to 3.12 nM fMLF (Table 6)",5.70%
same,Relative Migration (PMN migration towards antibody conjugates),"[3]; 30 nM, relative to 30 nM fMLF (Table 7)",14.66%
same,Relative Migration (PMN migration towards antibody conjugates),"[3]; 50 nM, relative to 3.12 nM fMLF (Table 6)",12.02%
same,Relative Migration (PMN migration towards antibody conjugates),"[3]; 100 nM, relative to 3.12 nM fMLF (Table 6)",6.67%
same,Relative Migration (PMN migration towards antibody conjugates),"[3]; 100 nM, relative to 30 nM fMLF (Table 7)",14.89%
same,Relative Migration (PMN migration towards antibody conjugates),"[3]; 300 nM, relative to 30 nM fMLF (Table 7)",17.95%
same,PMN migration (in words),[3]; relative to conjugated antibodies,did not induce PMN migration
Tmab-G1-fMIFL-HC124C-378C-(PEG6) (antibody),EC50 of PMN ROS production,[2],0.0136 µM
Tmab-G1-fMIFL-HC124C-378C-(PEG12) (antibody),EC50 of PMN ROS production,[2],0.0364 µM
